In a melting point compilation (Tetko et al.; mined from patent text by program, amines drawn as free bases though some values may be those of a salt):

Structure (SMILES) | melting point [°C]
CCO/C(=C\c1ccc(C#N)cc1)C(=O)O | 171 to 172
NC1CCc2[nH]c3ccccc3c2C1 (stereo not given) | 160 to 166
CC1(C)CCC(C)(C)c2cc(-c3cc(-c4ccc(C(=O)O)cc4)ccc3OCC(O)CO)ccc21 (stereo not given) | 258
CSc1nc(Cl)nc(Cl)n1 | 57 to 59
Cc1cc(-c2nn(C(C)c3oc4ccccc4c(=O)c3-c3cccc(F)c3)c3ncnc(N)c23)ccn1 (stereo not given) | 266 to 268
CN(C(=O)OC(C)(C)C)c1cc(Oc2ccc(C#N)cc2)ccc1[N+](=O)[O-] | 141 to 143
COC(=O)c1cc(O)ccc1N | 154 to 155
C=CC[C@H](C(=O)NC)c1ccc(Cl)c(Cl)c1 | 104 to 105
O=C1Nc2cc(-n3nnn(CCCF)c3=O)c(F)cc2CC1Cl (stereo not given) | 114 to 118
N#Cc1cc(Cc2ccc(F)cc2)ccc1N | 105 to 107
O=C(Nc1ccccc1S(=O)(=O)C1CCCC1)N[C@@H](Cc1ccc(NC(=O)c2c(Cl)cncc2Cl)cc1)C(=O)O | 233
CC(=O)NC1=NCC(c2ccccc2)CN1 (stereo not given) | 246 to 249
CC1CCN(c2cc(F)cc(C(=O)Nc3ccc(Oc4ccnc(N5CCOCC5)n4)c4ccccc34)c2)CC1 | 88 to 89
CNC(=O)Nc1ccc(Oc2cccc(C(F)(F)F)c2)c(Cl)c1 | 160
Cc1ccc(-c2nc(C(F)(F)F)oc2-c2ccc(S(C)(=O)=O)cc2)cc1 | 141 to 142
Cc1cc(=O)c(-c2ccc(Oc3ccc(Cl)cc3)cc2)c(C)n1O | 232 to 236

Second part, the molecule after the results:

melting point [°C] | Structure (SMILES)
96.5 to 98 | CCOC(=O)C(CC)C(=O)Nc1cc(Cl)cc(Cl)c1 (stereo not given)
218 to 220 | Cc1ncc(C#N)c(Nc2ccc3[nH]ccc3c2C)c1-c1cc2cc(CN3CCN(C)CC3)ccc2o1
105 to 108 | Cc1ccc(-c2ccc(NC(=O)OC(C)(C)C)c([N+](=O)[O-])c2)cc1
179 to 180 | Cc1c(F)cc(C(=O)O)c(Cl)c1Cl
50 to 51 | CCCCCC(=O)OCCCOc1ccc(Nc2ccccc2)cc1
179 to 181 | CCCc1nc2c(N)nc3cc(OCCCNC(=O)C(C)C)ccc3c2n1CC(C)C
145 to 147 | Cc1oc(-c2ccccc2)nc1COc1ccc(CN(O)C(N)=O)c(Cl)c1
198 | CC(=O)C1C(=O)N(C(=O)NC(=O)c2ccccc2)c2ccccc21 (stereo not given)
241 to 243 | O=C1c2ccccc2-c2c1c1ccccc1c(=O)n2CCCNS(=O)(=O)c1ccc(Br)cc1
178 to 180 | COc1c(C)cnc(CSc2nc3ncc(O)cc3[nH]2)c1C
294 to 295 | Nc1ccc(C(=O)c2ccncc2)cc1[N+](=O)[O-]
62 to 64 | NCCCCn1cnc2c(N)ncnc21
146 to 148 | CC(C)(C)OC(=O)NC1C=Cc2ccccc2CC1 (stereo not given)
61 | NS(=O)(=O)c1ccc(-c2c(-c3ccccc3)noc2CC(=O)O)cc1
122 to 125 | COC(=O)C(=C(C)C)N1C(=O)[C@H](N2C(=O)c3ccccc3C2=O)[C@H]1Cl
91 to 92 | COC(=O)CCc1cc2cc(C#N)ccc2o1
227 to 228 | CC(C)(C)c1cc(C2SC(CC(=O)O)C(=O)N2CCCO)cc(C(C)(C)C)c1O (stereo not given)
154 to 156 | COc1ccc(C(=O)Nc2ccccc2C(c2ccc(O)cc2)c2ccc(O)cc2)cc1
165 to 166 | CCCn1nc2c(N)nc3ccccc3c2c1CC(C)(C)NC(=O)c1ccc(F)c(F)c1
59 to 62 | COc1ccc(C2(C#Cc3cccc(NS(C)(=O)=O)c3)CCCC(=O)C2)cc1OC1CCCC1 (stereo not given)
153 to 155 | CCC1=Nc2c(C)nn(C)c2C2=NC(C)CN12 (stereo not given)
135 to 137 | CC(=O)OCC(COC(C)=O)NC(=O)c1cc(NC(=O)CCl)cc(C(=O)NC(COC(C)=O)COC(C)=O)c1
199 to 201 | Nc1cc2c(cc1[N+](=O)[O-])OCO2
266 to 268 | c1ccc(-c2nnc3ccc(N4CCOCC4)nn23)cc1
